Data from article PMC7265429, “Characterization of a new small-molecule inhibitor of HDAC6 in glioblastoma” (Cell Death & Disease, 2020).

Test system: GNS166 cells
Test: Microarray whole-transcriptome gene expression analysis
Format: cell-based, human
Description: Whole-transcriptome analysis was performed from 300 ng of RNA using HuGene-2_0-st-v1 expression array (Affymetrix), which covers 48,226 transcripts. Raw data were first checked for quality purposes through the Affymetrix® Expression Console™ Software v1.4.1 and TAC software v4.0. Then, data were normalized using the Robust Multi-array Average (RMA) and analyzed by Limma tool. Probesets with FDR-corrected p-values smaller than 0.05 were selected. Functional enrichment on Gene Ontology (GO) biological processes was performed on a smaller subset of the differentially expressed genes (corrected p-value < 0.001) by means of Broad Institute GSEA. […] The data that support this study have been deposited in NCBI´s Gene Expression Omnibus and are accessible through GEO series accession number GSE143887.

O=C(CCCCCCC(=O)Nc1ccccc1)NO [SAHA, Suberoylanilide hydroxamic acid]
logFC LIPA (5 µM SAHA vs DMSO, transcript TC1000012577.hg.1): 1.686 | logFC ARNTL (5 µM SAHA vs DMSO, transcript TC1100006899.hg.1): 1.497 | logFC C11orf74 (5 µM SAHA vs DMSO, transcript TC1100007307.hg.1): 1.1776 | logFC FAM111B (5 µM SAHA vs DMSO, transcript TC1100007727.hg.1): 1.402 | logFC CYP2R1 (5 µM SAHA vs DMSO, transcript TC1100010185.hg.1): 1.194 | logFC SESN3 (5 µM SAHA vs DMSO, transcript TC1100012019.hg.1): 1.415 | logFC MMP12 (5 µM SAHA vs DMSO, transcript TC1100012134.hg.1): 1.855 | logFC BIRC3 (5 µM SAHA vs DMSO, transcript TC1100013087.hg.1): 2.344 | logFC CCND2 (5 µM SAHA vs DMSO, transcript TC1200006555.hg.1): 1.786 | logFC GPRC5A (5 µM SAHA vs DMSO, transcript TC1200006896.hg.1): 1.771 | logFC STK38L (5 µM SAHA vs DMSO, transcript TC1200007146.hg.1): 1.792 | logFC LRP1 (5 µM SAHA vs DMSO, transcript TC1200007861.hg.1): 1.377 | logFC TCP11L2 (5 µM SAHA vs DMSO, transcript TC1200008726.hg.1): 1.788 | logFC SLC2A3 (5 µM SAHA vs DMSO, transcript TC1200009800.hg.1): 1.712 | logFC ABCD2 (5 µM SAHA vs DMSO, transcript TC1200010413.hg.1): 2.708 | logFC NELL2 (5 µM SAHA vs DMSO, transcript TC1200010490.hg.1): 2.463 | logFC FAIM2 (5 µM SAHA vs DMSO, transcript TC1200010642.hg.1): 1.773 | logFC AGAP2 (5 µM SAHA vs DMSO, transcript TC1200010976.hg.1): 1.559 | logFC KITLG (5 µM SAHA vs DMSO, transcript TC1200011460.hg.1): 1.767 | logFC LUM (5 µM SAHA vs DMSO, transcript TC1200011495.hg.1): 3.868 | logFC FGD6 (5 µM SAHA vs DMSO, transcript TC1200011574.hg.1): 1.639 | logFC MGST1 (5 µM SAHA vs DMSO, transcript TC1200012597.hg.1): 1.82 | logFC CCNA1 (5 µM SAHA vs DMSO, transcript TC1300006879.hg.1): 1.421 | logFC SERTM1 (5 µM SAHA vs DMSO, transcript TC1300006883.hg.1): 2.721 | logFC NDFIP2 (5 µM SAHA vs DMSO, transcript TC1300007592.hg.1): 1.353 | logFC CLDN10 (5 µM SAHA vs DMSO, transcript TC1300007752.hg.1): 1.556 | logFC RAP2A (5 µM SAHA vs DMSO, transcript TC1300007780.hg.1): 1.182 | logFC SLITRK6 (5 µM SAHA vs DMSO, transcript TC1300009394.hg.1): 2.414 | logFC KDELC1 (5 µM SAHA vs DMSO, transcript TC1300009674.hg.1): 1.5525 | logFC HSPA2 (5 µM SAHA vs DMSO, transcript TC1400007443.hg.1): 3.285 | logFC PPP4R4 (5 µM SAHA vs DMSO, transcript TC1400008058.hg.1): 2.48 | logFC TXNDC16 (5 µM SAHA vs DMSO, transcript TC1400009184.hg.1): 1.763 | logFC EGLN3 (5 µM SAHA vs DMSO, transcript TC1400010730.hg.1): 2.2444 | logFC CKMT1B (5 µM SAHA vs DMSO, transcript TC1500007062.hg.1): 2.569 | logFC CKMT1A (5 µM SAHA vs DMSO, transcript TC1500007067.hg.1): 3.452 | logFC IQCH (5 µM SAHA vs DMSO, transcript TC1500007640.hg.1): 1.591 | logFC ARRDC4 (5 µM SAHA vs DMSO, transcript TC1500008470.hg.1): 1.5 | logFC GCOM1 (5 µM SAHA vs DMSO, transcript TC1500010744.hg.1): 1.317 | logFC ATP1B2 (5 µM SAHA vs DMSO, transcript TC1700006763.hg.1): 3.1227 | logFC TMEM107 (5 µM SAHA vs DMSO, transcript TC1700009676.hg.1): 1.351 | logFC CORO6 (5 µM SAHA vs DMSO, transcript TC1700010252.hg.1): 1.546 | logFC C1QL1 (5 µM SAHA vs DMSO, transcript TC1700010856.hg.1): 1.605 | logFC TTLL6 (5 µM SAHA vs DMSO, transcript TC1700011007.hg.1): 1.858 | logFC (5 µM SAHA vs DMSO, transcript TC1700011261.hg.1): 1.393 | logFC TMEM241 (5 µM SAHA vs DMSO, transcript TC1800008281.hg.1): 1.807 | logFC REEP6 (5 µM SAHA vs DMSO, transcript TC1900006537.hg.1): 1.987 | logFC INAFM1 (5 µM SAHA vs DMSO, transcript TC1900008416.hg.1): 2.5078 | logFC PRKCG (5 µM SAHA vs DMSO, transcript TC1900008825.hg.1): 1.503 | logFC RFPL4A (5 µM SAHA vs DMSO, transcript TC1900008931.hg.1): 3.505 | logFC RFPL4AL1 (5 µM SAHA vs DMSO, transcript TC1900008932.hg.1): 2.766 | logFC KCNC3 (5 µM SAHA vs DMSO, transcript TC1900011194.hg.1): 1.754 | logFC FXYD7 (5 µM SAHA vs DMSO, transcript TC1900011710.hg.1): 2.141 | logFC RTBDN (5 µM SAHA vs DMSO, transcript TC1900011892.hg.1): 2.027 | logFC RNF24 (5 µM SAHA vs DMSO, transcript TC2000008242.hg.1): 1.55 | logFC TASP1 (5 µM SAHA vs DMSO, transcript TC2000008436.hg.1): 1.327 | logFC FLRT3 (5 µM SAHA vs DMSO, transcript TC2000008445.hg.1): 2.943 | logFC CYP24A1 (5 µM SAHA vs DMSO, transcript TC2000009522.hg.1): 1.58 | logFC LCA5L (5 µM SAHA vs DMSO, transcript TC2100008171.hg.1): 1.839 | logFC H1F0 (5 µM SAHA vs DMSO, transcript TC2200007318.hg.1): 1.771 | logFC, unannotated transcript (DMSO vs SAHA, downregulated, transcript 23064072): -1.45 | logFC, unannotated transcript (DMSO vs SAHA, downregulated, transcript 23064958): -1.242 | logFC, unannotated transcript (DMSO vs SAHA, downregulated, transcript 23066344): -2.142 | logFC, unannotated transcript (DMSO vs SAHA, downregulated, transcript 23066350): -1.951 | logFC, unannotated transcript (DMSO vs SAHA, downregulated, transcript 23066369): -2.142 | logFC, unannotated transcript (DMSO vs SAHA, downregulated, transcript 23066376): -1.488 | logFC, unannotated transcript (DMSO vs SAHA, downregulated, transcript 23066377): -1.951 | logFC, unannotated transcript (DMSO vs SAHA, downregulated, transcript 23068519): -1.54 | logFC, unannotated transcript (DMSO vs SAHA, downregulated, transcript 23071518): -1.2407 | logFC, unannotated transcript (DMSO vs SAHA, downregulated, transcript 23074026): -1.4 | logFC, unannotated transcript (DMSO vs SAHA, downregulated, transcript 23074907): -1.601 | logFC, unannotated transcript (DMSO vs SAHA, downregulated, transcript 23075457): -1.338 | logFC, unannotated transcript (DMSO vs SAHA, downregulated, transcript 23075879): -1.002 | logFC, unannotated transcript (DMSO vs SAHA, downregulated, transcript 23076022): -1.002 | logFC, unannotated transcript (DMSO vs SAHA, downregulated, transcript 23076173): -1.06 | logFC, unannotated transcript (DMSO vs SAHA, downregulated, transcript HTA2-pos-3662482_st): -0.977 | logFC, unannotated transcript (DMSO vs SAHA, downregulated, transcript HTA2-pos-3671550_st): -1.877 | logFC, unannotated transcript (DMSO vs SAHA, downregulated, transcript HTA2-pos-3671554_st): -1.443 | logFC, unannotated transcript (DMSO vs SAHA, downregulated, transcript HTA2-pos-PSR17008077.hg.1): -1.062 | logFC, unannotated transcript (DMSO vs SAHA, downregulated, transcript HTA2-pos-PSR17008082.hg.1): -1.0258 | logFC, unannotated transcript (DMSO vs SAHA, downregulated, transcript HTA2-pos-PSR17013958.hg.1): -1.428 | logFC ARAF (DMSO vs SAHA, downregulated, transcript TC0X00007148.hg.1): -1.073 | logFC RBM3 (DMSO vs SAHA, downregulated, transcript TC0X00007195.hg.1): -1.375 | logFC SUV39H1 (DMSO vs SAHA, downregulated, transcript TC0X00007200.hg.1): -1.395 | logFC PLP2 (DMSO vs SAHA, downregulated, transcript TC0X00007222.hg.1): -1.034 | logFC PBDC1 (DMSO vs SAHA, downregulated, transcript TC0X00007686.hg.1): -1.452 | logFC MID2 (DMSO vs SAHA, downregulated, transcript TC0X00008078.hg.1): -1.792 | logFC HMGB3 (DMSO vs SAHA, downregulated, transcript TC0X00008724.hg.1): -1.132 | logFC TAF9B (DMSO vs SAHA, downregulated, transcript TC0X00010136.hg.1): -1.5452 | logFC STS (DMSO vs SAHA, downregulated, transcript TC0X00011259.hg.1): -1.335
